The values below come from ChEMBL document CHEMBL3046813, “Novel tetranortriterpenoid derivatives from Munronia henryi” (2003).

By mortality is commonly meant the percentage killed.

Assay [1] relates to Pieris brassicae. Briefly: Antifeedant activity against Pieris brassicae third-instar larvae reared on compound pre-treated Brassica oleracea L. leaf disks assessed antifeeding rate at 1000 ppm measured after 48 hr by conventional leaf disk method. The class given is functional.
Assay [2] relates to Pieris brassicae. Briefly: Antifeedant activity against Pieris brassicae third-instar larvae reared on compound pre-treated Brassica oleracea L. leaf disks assessed as insect mortality at 1000 ppm measured after 6 days by conventional leaf disk method. The class given is functional. To be noted: foliar.

With `C=C1[C@@H]2[C@@H](OC(=O)C=C[C@@]2(C)[C@H]2CC(=O)OC2(C)C)[C@H](OC(C)=O)[C@@]2(C)[C@H](C(=O)O)C[C@H]3O[C@]132` [MUNRONIN F], the AFI with Pieris brassicae [1] worked out at 0%. In addition, in the assay on Pieris brassicae [2], the mortality at 1000 ppm came out at 0%.

For the molecule `C=C1[C@@H]2[C@@H](OC(=O)C=C[C@@]2(C)[C@H]2CC(=O)OC2(C)C)[C@H](OC(C)=O)[C@@]2(C)[C@H](C3=CCNC3=O)C[C@H]3O[C@]132` [MUNRONIN D], the AFI with Pieris brassicae [1] was 28%. In the assay with Pieris brassicae [2], the mortality at 1000 ppm worked out at 10%.

For the molecule `C/C=C(\C)C(=O)O[C@H]1C[C@@H](OC(C)=O)[C@@]2(C(=O)OC)CO[C@H]3[C@@H](O)[C@@](C)([C@]45O[C@@]4(C)[C@@H]4C[C@H]5O[C@@H]5OC=C[C@@]54O)[C@H]4[C@]1(CO[C@]4(O)C(=O)OC)[C@@H]32` [AZADIRACHTIN A], in the assay on Pieris brassicae [1], the AFI is listed as 99.5%. For the same molecule, in the assay with Pieris brassicae [2], the mortality at 1000 ppm worked out at 100%.

For `C=C1[C@@H]2[C@@H](OC(=O)C=C[C@@]2(C)[C@H]2CC(=O)OC2(C)C)[C@H](OC(C)=O)[C@@]2(C)[C@H](C3=CC(=O)OC3O)C[C@H]3O[C@]132` (some centres undefined) [MUNRONIN B], the AFI in the assay with Pieris brassicae [1] is 20.9%. For the same molecule, the mortality at 1000 ppm with Pieris brassicae [2] worked out at 10%.

For the molecule `C#C[C@@H]1C[C@H]2O[C@]23C(=C)[C@@H]2[C@@H](OC(=O)C=C[C@@]2(C)[C@H]2CC(=O)OC2(C)C)[C@H](OC(C)=O)[C@@]13C` [MUNRONIN E], the AFI with Pieris brassicae [1] was found to be 37.1%. For the same molecule, the mortality at 1000 ppm with Pieris brassicae [2] was determined as 10%.

As for `C=C1[C@@H]2[C@@H](OC(=O)C=C[C@@]2(C)[C@H]2CC(=O)OC2(C)C)[C@H](OC(C)=O)[C@@]2(C)[C@H](C3=CC(O)OC3=O)C[C@H]3O[C@]132` (some centres undefined) [MUNRONIN A], in the assay with Pieris brassicae [1], the AFI is on record as 0%. In addition, in the assay with Pieris brassicae [2], the mortality at 1000 ppm worked out at 20%.

As for `C=C1[C@@H]2[C@@H](OC(=O)C=C[C@@]2(C)[C@H]2CC(=O)OC2(C)C)[C@H](OC(C)=O)[C@@]2(C)[C@H](C3=CCOC3=O)C[C@H]3O[C@]132` [MUNRONIN C], the AFI with Pieris brassicae [1] came out at 31%. Moreover, the mortality at 1000 ppm in the assay on Pieris brassicae [2] is 10%.
